Assay: Extraction into non-amine (NA) solvent from solutions containing both glucose and citric acid
Format: physicochemical
Conditions: selectivity decreases with increase in distribution of citric into solvent phase
Source text: The citric/glucose selectivity decreases with the increase in the distribution of citric into the solvent phase.

citric/glucose selectivity of extraction into the NA solvent: selectively extracted
SMILES: O=C(O)CC(O)(CC(=O)O)C(=O)O [citric acid]

Reference: patent publication US7411090B2, “Process for the recovery of citric acid” (A.E. Staley Manufacturing Company, priority 2003, dated 2008)
